Measured values reported in patent US7253198B2, “Hydroxyethylamine derivatives for the treatment of Alzheimer's disease” (Glaxo Group Limited, priority 2002, dated 2007).
Like-named read-outs stand apart in the source and are kept apart here.

Target: Asp-2 (Homo sapiens, UniProt P56817)
Test: Asp-2 Inhibitory Assay
Format: biochemical
Conditions: Assay (I), FAM-SEVNLDAEFK-TAMRA substrate, pH 4.5
Protocol: (I) Asp-2 Inhibitory Assay
This is prepared by diluting 2 ml of a 2 mM DMSO solution of the substrate into 400 ml of buffer (100 mM Sodium acetate pH=4.5, 1 l Milli-Q water, 0.06% Triton X-100 (0.5 ml/l), pH adjusted to 4.5 using glacial acetic acid). […] This is prepared by diluting 16 ml of a 500 nM enzyme solution into 384 ml of buffer (prepared as above).
Blank wells (enzyme solution replaced by buffer) are included as controls on each plate.

Asp-2, sequence (P56817 46-501): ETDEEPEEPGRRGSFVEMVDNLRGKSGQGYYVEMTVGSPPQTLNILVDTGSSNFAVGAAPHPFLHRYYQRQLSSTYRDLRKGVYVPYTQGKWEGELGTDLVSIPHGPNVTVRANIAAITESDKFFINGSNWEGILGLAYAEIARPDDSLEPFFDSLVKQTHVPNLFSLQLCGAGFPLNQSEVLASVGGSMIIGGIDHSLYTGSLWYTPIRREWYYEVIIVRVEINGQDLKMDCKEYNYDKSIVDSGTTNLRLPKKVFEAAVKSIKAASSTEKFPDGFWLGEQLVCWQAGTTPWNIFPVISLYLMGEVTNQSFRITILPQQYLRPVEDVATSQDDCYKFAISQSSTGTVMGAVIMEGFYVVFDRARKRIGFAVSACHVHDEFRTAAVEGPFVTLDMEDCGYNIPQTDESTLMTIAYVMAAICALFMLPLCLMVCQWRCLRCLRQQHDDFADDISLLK

Row | Structure (SMILES) | IC50 (read-out: inhibition (Asp-2)) | IC50 (inhibition (Asp-2))
1 | C[C@H](NC[C@@H](O)[C@H](Cc1ccccc1)NC(=O)c1cc(C2CCCC2)cc(N2CCCC2=O)c1)C(=O)NC1CCCCC1 [Example E12, N-[(1S,2R)-1-Benzyl-3-((S)-1-cyclohexylcarbamoylethylamino)-2-hydroxypropyl]-3-cyclopentyl-5-(2-oxopyrrolidin-1-yl)benzamide] | 1 to 50 nM | 
2 | O=C(NC(Cc1ccccc1)C(O)CNCc1cccc(C(F)(F)F)c1)c1cc(C2CCCC2)cc(N2CCCC2=O)c1 (centres unmarked) [Example E22, N-[1-Benzyl-2-hydroxy-3-(3-trifluoromethylbenzylamino)propyl]-3-cyclopentyl-5-(2-oxopyrrolidin-1-yl)benzamide] | 1 to 50 nM | 
3 | CCCCCNc1cc(C(=O)N[C@@H](Cc2ccccc2)[C@H](O)CN[C@@H](C)C(=O)NC2CCCCC2)cc(N2CCCC2=O)c1 [Example E54, N-[(1S,2R)-1-Benzyl-3-((S)-1-cyclohexylcarbamoylethylamino)-2-hydroxypropyl]-3-(2-oxopyrrolidin-1-yl)-5-pentylaminobenzamide] | 1 to 50 nM | 
4 | CCC(CC)Nc1cc(C(=O)N[C@@H](Cc2ccccc2)[C@H](O)CN[C@@H](C)C(=O)NC2CCCCC2)cc(N2CCCC2=O)c1 [Example E55, N-[(1S,2R)-1-Benzyl-3-((S)-1-cyclohexylcarbamoylethylamino)-2-hydroxypropyl]-3-(1-ethylpropylamino)-5-(2-oxopyrrolidin-1-yl)benzamide] | 1 to 50 nM | 
5 | CCCCNc1cc(C(=O)N[C@@H](Cc2ccccc2)[C@H](O)CN[C@@H](C)C(=O)NC2CCCCC2)cc(N2CCCC2=O)c1 [Example E56, N-[(1S,2R)-1-Benzyl-3-((S)-1-cyclohexylcarbamoylethylamino)-2-hydroxypropyl]-3-butylamino-5-(2-oxopyrrolidin-1-yl)benzamide] | 1 to 50 nM | 
6 | CC(C)CCCC(C)NC[C@@H](O)[C@H](Cc1ccccc1)NC(=O)c1cc(NC(C)C)cc(N2CCCC2=O)c1 (stereo partly drawn) [Example E60, N-[(1S,2R)-1-Benzyl-3-(1,5-dimethylhexylamino)-2-hydroxypropyl]-3-isopropylamino-5-(2-oxopyrrolidin-1-yl)benzamide] | 1 to 50 nM | 
7 | CCNc1cc(C(=O)N[C@@H](Cc2ccccc2)[C@H](O)CNCc2cccc(OC(F)(F)F)c2)cc(N2CCCC2=O)c1 [Example E86, N-[(1S,2R)-1-Benzyl-2-hydroxy-3-(3-trifluoromethoxybenzylamino)-propyl]-3-ethylamino-5-(2-oxopyrrolidin-1-yl)benzamide] |  | 1 to 50 nM
8 | CCCC[C@H](NC[C@@H](O)[C@H](Cc1ccccc1)NC(=O)c1cc(OC(C)C)cc(N2CCCC2=O)c1)C(=O)NCC(C)C [Example E179, N-[(1S,2R)-1-Benzyl-2-hydroxy-3-((S)-1-isobutylcarbamoyl-pentylamino)-propyl]-3-isopropoxy-5-(2-oxopyrrolidin-1-yl)benzamide] | 1 to 50 nM | 
